Source: patent US6338955B2, “β1-4 N-acetylglucosaminyltransferase and gene encoding” (Kirin Beer Kabushiki Kaisha, priority 1996, dated 2002)
“Also recorded” adds a separate entry of the source. Read-outs that look alike come from different tables or passages of the source. One block for each compound: values may come before it.

What was measured:
GnT-IV [1] = biological target: T1, GnT-IV (Bos taurus, UniProt O77836); test: Specific assay for GnT-IV activity (pyridylaminated oligosaccharide acceptor, HPLC) with purified enzyme; format: biochemical, bovine; conditions: for Activity (%), Inhibition of GnT-IV by Nucleotides: nucleotide 2 mM in the presence of 0.5 mM UDP-GlcNAc, nothing added = 100%
T1 construct: it is thought that GnT-IV from bovine small intestine is a glycoprotein having at least Asn-linked sugar chains; from tissue; host or cells: bovine small intestine (microsome fraction, Triton X-100 solubilized, purified to Sample 7)
T1 sequence (O77836 93-535 limits assumed): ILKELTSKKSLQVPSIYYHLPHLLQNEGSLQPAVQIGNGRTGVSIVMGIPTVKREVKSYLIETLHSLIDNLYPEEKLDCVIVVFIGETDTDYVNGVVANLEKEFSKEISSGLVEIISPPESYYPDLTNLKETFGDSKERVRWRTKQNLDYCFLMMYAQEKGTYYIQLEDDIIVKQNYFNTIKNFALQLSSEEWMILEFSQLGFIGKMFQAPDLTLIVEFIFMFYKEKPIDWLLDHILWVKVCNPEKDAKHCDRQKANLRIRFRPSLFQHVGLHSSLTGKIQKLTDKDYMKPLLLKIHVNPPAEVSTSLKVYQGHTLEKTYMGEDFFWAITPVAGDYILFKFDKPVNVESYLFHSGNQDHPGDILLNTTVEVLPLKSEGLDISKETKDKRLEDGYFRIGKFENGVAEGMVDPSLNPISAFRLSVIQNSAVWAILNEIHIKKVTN
Description: Then, the reaction was terminated by boiling the solution for 2 minutes. […] The fluorescence of pyridylamino groups was detected using excitation at 320 nm and emission at 400 nm.

GnT-IV [2] = biological target: T2, GnT-IV (Bos taurus, UniProt O77836); test: Action of GnT-IV on glycoproteins (UDP-[14C]GlcNAc, SDS-PAGE and fluorography); format: biochemical, bovine; conditions: 37° C., 20 hours; FIG. 17 Panel B lanes 2 and 5
T2 construct: it is thought that GnT-IV from bovine small intestine is a glycoprotein having at least Asn-linked sugar chains; from tissue; host or cells: bovine small intestine (microsome fraction, Triton X-100 solubilized, purified to Sample 7)
T2 sequence (O77836 1-535): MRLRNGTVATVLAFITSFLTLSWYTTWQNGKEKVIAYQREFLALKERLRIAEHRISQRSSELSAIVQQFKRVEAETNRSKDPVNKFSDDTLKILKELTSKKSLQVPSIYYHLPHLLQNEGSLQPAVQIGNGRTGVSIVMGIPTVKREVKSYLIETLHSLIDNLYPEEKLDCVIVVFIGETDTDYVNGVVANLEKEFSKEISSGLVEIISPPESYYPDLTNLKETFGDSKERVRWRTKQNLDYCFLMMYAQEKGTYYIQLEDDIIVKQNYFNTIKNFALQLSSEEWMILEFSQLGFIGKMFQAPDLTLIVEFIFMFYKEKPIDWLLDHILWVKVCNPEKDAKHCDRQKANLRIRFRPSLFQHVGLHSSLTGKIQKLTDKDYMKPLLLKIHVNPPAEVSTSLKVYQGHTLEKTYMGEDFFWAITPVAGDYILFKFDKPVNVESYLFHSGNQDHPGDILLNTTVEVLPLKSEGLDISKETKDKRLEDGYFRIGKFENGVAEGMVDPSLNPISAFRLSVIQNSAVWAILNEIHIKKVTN
Description: GnT-IV reaction conditions: To 10 μl of a solution containing […] of GnT-IV, a substrate glycoprotein equivalent to 1.6 nmol of biantennary type sugar chains (for fetuin alone, the sugar chain content was 1.6 nmol) and 450 nCi of UDP-[^14C] […] One tenth of the resultant solution was analyzed by SDS-PAGE and fluorography.
For SDS-PAGE, 10-20% gradient gel (Daiichi Kagaku) was used. For fluorography, Amplify (Amersham) was used to expose the samples to X ray film for 20 hours.
GlcNAc as a sugar donor. Then, the reaction products were analyzed by SDS-PAGE and fluorography (Panels A and B, FIG. 17). As shown in lanes 2 and 5 of Panel B in FIG. 17, transfer of [^14 C] GlcNAc to asialo agalacto human transferrin and asialo agalacto, CHO cell-derived recombinant human erythropoietin.

[3] = additive 10 mM added to GnT-IV sample freed of metal ions, activity with 10 mM MnCl2 = 100%

Compound: [Cl][Fe][Cl] [FeCl2]
Requirement of divalent cation: effect of additive on activity (GnT-IV [1]): Weak effect
Activity (%), Divalent Cation Requirement of GnT-IV (GnT-IV [1]; [3]): 9.8%

Compound: [Cl-].[Cl-].[Co+2] [CoCl2]
Activity (%), Divalent Cation Requirement of GnT-IV (GnT-IV [1]): 74.8%
Effect of divalent cation relative to that of Mn2+ (GnT-IV [1]): about 70%

Compound: [Cl-].[Cl-].[Mg+2] [MgCl2]
Activity (%), Divalent Cation Requirement of GnT-IV (GnT-IV [1]; [3]): 72.5%

Compound: CC(=O)N[C@H]1[C@@H](OP(=O)(O)OP(=O)(O)OC[C@H]2O[C@@H](n3ccc(=O)[nH]c3=O)[C@H](O)[C@@H]2O)O[C@H](CO)[C@H](O)[C@@H]1O [UDP-N-acetylgalactosamine]
Activity (%), Inhibition of GnT-IV by Nucleotides (GnT-IV [1]): 59.7%

Compound: O=c1ccn([C@H]2C[C@H](O)[C@@H](COP(=O)(O)OP(=O)(O)O)O2)c(=O)[nH]1 [2′-deoxy-UDP]
Activity (%), Inhibition of GnT-IV by Nucleotides (GnT-IV [1]): 67.4%

Compound: Cc1cn([C@H]2C[C@H](O)[C@@H](COP(=O)(O)OP(=O)(O)O)O2)c(=O)[nH]c1=O [TDP]
Inhibition of GnT-IV by nucleotides / UDP derivatives (GnT-IV [1]): little inhibitory effect; also recorded: do not have inhibitory effect
Activity (%), Inhibition of GnT-IV by Nucleotides (GnT-IV [1]): 110%

Compound: Nc1ccn([C@@H]2O[C@H](COP(=O)(O)OP(=O)(O)O)[C@@H](O)[C@H]2O)c(=O)n1 [CDP]
Inhibition of GnT-IV by nucleotides / UDP derivatives (GnT-IV [1]): little inhibitory effect; also recorded: do not have inhibitory effect
Activity (%), Inhibition of GnT-IV by Nucleotides (GnT-IV [1]): 112%

Compound: [Ca+2].[Cl-].[Cl-] [CaCl2]
Requirement of divalent cation: effect of additive on activity (GnT-IV [1]): Weak effect
Activity (%), Divalent Cation Requirement of GnT-IV (GnT-IV [1]; [3]): 7.2%

Compound: [Cl][Mn][Cl] [MnCl2]
Requirement of divalent cation: effect of additive on activity (GnT-IV [1]): greatest effect
Activity (%), Divalent Cation Requirement of GnT-IV (GnT-IV [1]; [3]): 100%

Compound: [Cl][Cu][Cl] [CuCl2]
Activity (%), Divalent Cation Requirement of GnT-IV (GnT-IV [1]; [3]): 0%

Compound: CC(=O)N[C@H]1[C@@H](OP(=O)(O)OP(=O)(O)OC[C@H]2O[C@@H](n3ccc(=O)[nH]c3=O)[C@H](O)[C@@H]2O)O[C@H](CO)[C@@H](O)[C@@H]1O [UDP-GlcNAc]
Km (GnT-IV [1]; GnT-II product type oligosaccharide as receptor substrate, conditions (i)/Reference Example 2, read-out: Km toward UDP-GlcNAc): 220 µM

More lines, main results first:

Transfer of [14C]GlcNAc to glycoprotein by GnT-IV (GnT-IV [2]): transfer of [^14 C] GlcNAc
Compound: asialo agalacto human transferrin: human transferrin treated with sialidase and β-galactosidase; glycoprotein substrate

Activity (%), Inhibition of GnT-IV by Nucleotides (GnT-IV [1]): 115%
Compound: O=c1ccn([C@@H]2O[C@H](CO)[C@@H](O)[C@H]2O)c(=O)[nH]1 [Uridine]
Inhibition of GnT-IV by nucleotides / UDP derivatives (GnT-IV [1]): little inhibitory effect; also recorded: do not have inhibitory effect

Transfer of [14C]GlcNAc to glycoprotein by GnT-IV (GnT-IV [2]): transfer of [^14 C] GlcNAc
Compound: asialo agalacto, CHO cell-derived recombinant human erythropoietin: recombinant human erythropoietin with high biantennary sugar chain content treated with sialidase and β-galactosidase

Activity (%), Inhibition of GnT-IV by Nucleotides (GnT-IV [1]): 73.6%
Compound: NCCCCCCOP(=O)(O)OP(=O)(O)OCC1OC(n2ccc(=O)[nH]c2=O)C(O)C1O (centres unmarked) [UDP-hexanolamine]

Inhibition of GnT-IV by nucleotides / UDP derivatives (GnT-IV [1]): little inhibitory effect
Activity (%), Inhibition of GnT-IV by Nucleotides (GnT-IV [1]): 97.3%
Compound: O=c1ccn([C@@H]2O[C@H](COP(=O)(O)O)[C@@H](O)[C@H]2O)c(=O)[nH]1 [UMP]

Stabilization of the enzyme (GnT-IV [1]): Stabilizing effect is recognized
Compound: OCC(O)CO [glycerol]

Activity (%), Inhibition of GnT-IV by Nucleotides (GnT-IV [1]): 27.3%
Compound: O=c1ccn([C@@H]2O[C@H](COP(=O)(O)OP(=O)(O)O)[C@@H](O)[C@H]2O)c(=O)[nH]1 [UDP]
Inhibition of GnT-IV by nucleotides / UDP derivatives (GnT-IV [1]): inhibited the activity of this enzyme most strongly

Activity (%), Inhibition of GnT-IV by Nucleotides (GnT-IV [1]): 88.2%
Compound: O=c1ccn([C@@H]2O[C@H](COP(=O)(O)OP(=O)(O)OP(=O)(O)O)[C@@H](O)[C@H]2O)c(=O)[nH]1 [UTP]

Activity (%), Inhibition of GnT-IV by Nucleotides (GnT-IV [1]): 92.3%
Compound: O=C(O)[C@H]1O[C@H](OP(=O)(O)OP(=O)(O)OC[C@H]2O[C@@H](n3ccc(=O)[nH]c3=O)[C@H](O)[C@@H]2O)[C@H](O)[C@@H](O)[C@@H]1O [UDP-glucuronic acid]
